MBC, Ratio and MIC data for 2 compounds are collected here from ChEMBL document CHEMBL4813981, “Synthesis and in vitro antibacterial activity of new aminothiazole-oximepiperidone cephalosporins” (2021).

Structures are written as SMILES. In brackets after ≈: the same amount, converted by molar mass. Bounds are passed on as bounds.

In test [1] the test system is Acinetobacter baumannii. The experiment in a line: Bactericidal activity against Carbapenem- resistant Acinetobacter baumannii 17-11 assessed as reduction in bacterial growth. In kind it is functional.
The test system of test [2] is Escherichia coli. The experiment in a line: Bactericidal activity against ESBLs positive Carbapenem-sensitive Escherichia coli 17-10 assessed as reduction in bacterial growth. In kind it is functional.
Test [3] relates to Enterobacter cloacae. The experiment in a line: Bactericidal activity against Enterobacter cloacae 17-9 assessed as reduction in bacterial growth. In kind it is functional.
Test [4] deals with Klebsiella pneumoniae. The experiment in a line: Ratio of MBC to MIC for Carbapenem-resistant Klebsiella pneumoniae KR 15-8 assessed as reduction in bacterial growth in the presence of Avibactam. In kind it is functional.
Test [5] deals with Pseudomonas aeruginosa. The experiment in a line: Ratio of MBC to MIC for carbapenem-sensitive Pseudomonas aeruginosa 17-29 assessed as reduction in bacterial growth in the presence of Avibactam. In kind it is functional.
The subject of test [6] is Escherichia coli. The experiment in a line: Antibacterial activity against ESBLs positive Carbapenem-sensitive Escherichia coli 17-3 assessed as reduction in bacterial growth in the presence of Avibactam. In kind it is functional.
Test [7] relates to Escherichia coli. The experiment in a line: Ratio of MBC to MIC for ESBLs negative carbapenem-negative Escherichia coli 17-20 assessed as reduction in bacterial growth in the presence of Avibactam. In kind it is functional.
Test [8] concerns Klebsiella aerogenes. The experiment in a line: Antibacterial activity against Enterobacter aerogenes 17-3 assessed as reduction in bacterial growth in the presence of Avibactam. In kind it is functional.
The test system of test [9] is Enterobacter cloacae. The experiment in a line: Antibacterial activity against Enterobacter cloacae 17-9 assessed as reduction in bacterial growth.
The subject of test [10] is Escherichia coli. The experiment in a line: Ratio of MBC to MIC for ESBLs negative Carbapenem-sensitive Escherichia coli 17-9 assessed as reduction in bacterial growth. In kind it is functional.
Test [11] deals with Enterobacter cloacae. The experiment in a line: Ratio of MBC to MIC for Enterobacter cloacae 17-8 assessed as reduction in bacterial growth. In kind it is functional.
In test [12] the test system is Klebsiella pneumoniae. The experiment in a line: Antibacterial activity against ESBLs positive Carbapenem-sensitive Klebsiella pneumoniae 17-13 assessed as reduction in bacterial growth in the presence of Avibactam. In kind it is functional.
Test [13] relates to Klebsiella aerogenes. The experiment in a line: Ratio of MBC to MIC for Enterobacter aerogenes 17-4 assessed as reduction in bacterial growth in the presence of Avibactam. In kind it is functional.
In test [14] the test system is Enterobacter cloacae. The experiment in a line: Antibacterial activity against Enterobacter cloacae 17-9 assessed as reduction in bacterial growth in the presence of Avibactam. In kind it is functional.
Test [15] deals with Klebsiella aerogenes. The experiment in a line: Ratio of MBC to MIC for Enterobacter aerogenes 17-3 assessed as reduction in bacterial growth. In kind it is functional.
For test [16], the system named is Klebsiella pneumoniae. The experiment in a line: Ratio of MBC to MIC for Klebsiella pneumoniae ATCC BAA-1705 assessed as reduction in bacterial growth. In kind it is functional.
For test [17], the system named is Acinetobacter baumannii. The experiment in a line: Antibacterial activity against Carbapenem- resistant Acinetobacter baumannii 17-11 assessed as reduction in bacterial growth.
In test [18] the test system is Klebsiella pneumoniae. The experiment in a line: Ratio of MBC to MIC for ESBLs negative Carbapenem-sensitive Klebsiella pneumoniae 17-16 assessed as reduction in bacterial growth. In kind it is functional.
For test [19], the system named is Escherichia coli. The experiment in a line: Ratio of MBC to MIC for ESBLs negative carbapenem-negative Escherichia coli 17-7 assessed as reduction in bacterial growth in the presence of Avibactam. In kind it is functional.
The subject of test [20] is Escherichia coli. The experiment in a line: Antibacterial activity against ESBLs negative Carbapenem-sensitive Escherichia coli 17-16 assessed as reduction in bacterial growth in the presence of Avibactam. In kind it is functional.
The test system of test [21] is Escherichia coli. The experiment in a line: Antibacterial activity against ESBLs negative Carbapenem-sensitive Escherichia coli 17-19 assessed as reduction in bacterial growth in the presence of Avibactam. In kind it is functional.
Test [22] deals with Enterobacter cloacae. The experiment in a line: Antibacterial activity against Enterobacter cloacae 17-3 assessed as reduction in bacterial growth in the presence of Avibactam. In kind it is functional.
Test [23] has as its system Enterobacter cloacae. The experiment in a line: Ratio of MBC to MIC for Enterobacter cloacae 17-3 assessed as reduction in bacterial growth in the presence of Avibactam. In kind it is functional.
Test [24] deals with Escherichia coli. The experiment in a line: Ratio of MBC to MIC for ESBLs positive Carbapenem-sensitive Escherichia coli 17-10 assessed as reduction in bacterial growth. In kind it is functional.
Test [25] relates to Escherichia coli. The experiment in a line: Antibacterial activity against ESBLs negative Carbapenem-sensitive Escherichia coli 17-20 assessed as reduction in bacterial growth in the presence of Avibactam. In kind it is functional.
Test [26] deals with Escherichia coli. The experiment in a line: Antibacterial activity against ESBLs positive Carbapenem-sensitive Escherichia coli 17-5 assessed as reduction in bacterial growth in the presence of Avibactam. In kind it is functional.
The subject of test [27] is Pseudomonas aeruginosa. The experiment in a line: Ratio of MBC to MIC for carbapenem-sensitive Pseudomonas aeruginosa 17-7 assessed as reduction in bacterial growth in the presence of Avibactam. In kind it is functional.
The subject of test [28] is Pseudomonas aeruginosa. The experiment in a line: Antibacterial activity against Carbapenem- sensitive Pseudomonas aeruginosa 17-10 assessed as reduction in bacterial growth in the presence of Avibactam. In kind it is functional.
Test [29] has as its system Klebsiella pneumoniae. The experiment in a line: Antibacterial activity against ESBLs negative Carbapenem-sensitive Klebsiella pneumoniae 15-2 assessed as reduction in bacterial growth in the presence of Avibactam. In kind it is functional.
Test [30] deals with Enterobacter cloacae. The experiment in a line: Antibacterial activity against Enterobacter cloacae 17-8 assessed as reduction in bacterial growth.
Test [31] concerns Escherichia coli. The experiment in a line: Ratio of MBC to MIC for Escherichia coli ATCC 25922 assessed as reduction in bacterial growth. In kind it is functional.
Test [32] relates to Klebsiella pneumoniae. The experiment in a line: Antibacterial activity against ESBLs negative Carbapenem-sensitive Klebsiella pneumoniae 17-16 assessed as reduction in bacterial growth in the presence of Avibactam. In kind it is functional.
In test [33] the test system is Enterobacter cloacae. The experiment in a line: Antibacterial activity against Enterobacter cloacae 17-1 assessed as reduction in bacterial growth in the presence of Avibactam. In kind it is functional.
Test [34] relates to Escherichia coli. The experiment in a line: Ratio of MBC to MIC for ESBLs positive carbapenem-negative Escherichia coli 17-3 assessed as reduction in bacterial growth in the presence of Avibactam. In kind it is functional.
Test [35] has as its system Escherichia coli. The experiment in a line: Ratio of MBC to MIC for ESBLs positive carbapenem-negative Escherichia coli 17-10 assessed as reduction in bacterial growth in the presence of Avibactam. In kind it is functional.
In test [36] the test system is Pseudomonas aeruginosa. The experiment in a line: Ratio of MBC to MIC for carbapenem-sensitive Pseudomonas aeruginosa 17-7 assessed as reduction in bacterial growth. In kind it is functional.
In test [37] the test system is Pseudomonas aeruginosa. The experiment in a line: Bactericidal activity against Carbapenem- resistant Pseudomonas aeruginosa 17-1 assessed as reduction in bacterial growth. In kind it is functional.
Test [38] has as its system Klebsiella pneumoniae. The experiment in a line: Ratio of MBC to MIC for Carbapenem- resistant Klebsiella pneumoniae KR 15-6 assessed as reduction in bacterial growth. In kind it is functional.
The test system of test [39] is Klebsiella pneumoniae. The experiment in a line: Antibacterial activity against ESBLs positive Carbapenem-sensitive Klebsiella pneumoniae 17-11 assessed as reduction in bacterial growth in the presence of Avibactam. In kind it is functional.
For test [40], the system named is Klebsiella pneumoniae. The experiment in a line: Ratio of MBC to MIC for ESBLs positive Carbapenem-sensitive Klebsiella pneumoniae 17-12 assessed as reduction in bacterial growth in the presence of Avibactam. In kind it is functional.
Test [41] relates to Escherichia coli. The experiment in a line: Antibacterial activity against ESBLs positive Carbapenem-sensitive Escherichia coli 17-2 assessed as reduction in bacterial growth in the presence of Avibactam. In kind it is functional.
In test [42] the test system is Klebsiella pneumoniae. The experiment in a line: Ratio of MBC to MIC for Klebsiella pneumoniae ATCC BAA-1705 assessed as reduction in bacterial growth in the presence of Avibactam. In kind it is functional.
The subject of test [43] is Pseudomonas aeruginosa. The experiment in a line: Ratio of MBC to MIC for carbapenem-sensitive Pseudomonas aeruginosa 17-10 assessed as reduction in bacterial growth in the presence of Avibactam. In kind it is functional.
Test [44] has as its system Pseudomonas aeruginosa. The experiment in a line: Ratio of MBC to MIC for carbapenem-sensitive Pseudomonas aeruginosa 17-9 assessed as reduction in bacterial growth. In kind it is functional.
For test [45], the system named is Pseudomonas aeruginosa. The experiment in a line: Ratio of MBC to MIC for carbapenem-sensitive Pseudomonas aeruginosa 17-26 assessed as reduction in bacterial growth in the presence of Avibactam. In kind it is functional.

Turning to `CC(C)(O/N=C(\C(=O)N[C@@H]1C(=O)N2C(C(=O)[O-])=C(C[n+]3ccccc3)CS[C@H]12)c1csc(N)n1)C(=O)O` [CEFTAZIDIME], the MBC with Acinetobacter baumannii [1] was above 64 µg/mL; in the test with Escherichia coli [2], 16 µg/mL (≈ 29.3 µM); in the test with Enterobacter cloacae [3] it was above 4 µg/mL.

With `Nc1nc(/C(=N/OCc2cc(=O)c(O)cn2O)C(=O)N[C@@H]2C(=O)N3C(C(=O)O)=CCS[C@H]23)cs1`, the Ratio in the test with Klebsiella pneumoniae [4] is on record as 4; in the test on Pseudomonas aeruginosa [5] it was 8; in the test on Escherichia coli [7], above 16; with Escherichia coli [10], 4; in the test on Enterobacter cloacae [11], 1; with Klebsiella aerogenes [13], 1. Besides, the Ratio with Klebsiella aerogenes [15] is 1; with Klebsiella pneumoniae [16] it was above 1; in the test with Klebsiella pneumoniae [18], 1; in the test with Escherichia coli [19] it was 2; in the test on Enterobacter cloacae [23], 4; with Escherichia coli [24], 1. The Ratio is given as 1 in the test on Pseudomonas aeruginosa [27]; above 16 with Escherichia coli [31]; 2 in the test on Escherichia coli [34]; 8 with Escherichia coli [35]; 4 in the test on Pseudomonas aeruginosa [36]; 4 in the test on Klebsiella pneumoniae [38]. In addition, the Ratio in the test with Klebsiella pneumoniae [40] is listed as 1; with Klebsiella pneumoniae [42], 1; in the test on Pseudomonas aeruginosa [43] it was 2; in the test on Pseudomonas aeruginosa [44], 4; with Pseudomonas aeruginosa [45], 4. In addition, the minimum inhibitory concentration (MIC) in the test on Escherichia coli [6] was 0.125 µg/mL; with Klebsiella aerogenes [8] it was 0.5 µg/mL; in the test on Enterobacter cloacae [9], 8 µg/mL (≈ 15.7 µM); in the test on Klebsiella pneumoniae [12] it was at most 0.03 µg/mL; in the test with Enterobacter cloacae [14], 2 µg/mL; in the test on Acinetobacter baumannii [17], above 64 µg/mL. The MIC in the test with Escherichia coli [20] was found to be 0.5 µg/mL; in the test with Escherichia coli [21] it was 0.5 µg/mL; in the test on Enterobacter cloacae [22], 2 µg/mL; with Escherichia coli [25] it was 0.06 µg/mL; in the test with Escherichia coli [26] it was 1 µg/mL; in the test on Pseudomonas aeruginosa [28], 2 µg/mL. In addition, the MIC with Klebsiella pneumoniae [29] is at most 0.03 µg/mL; with Enterobacter cloacae [30], 16 µg/mL (≈ 31.5 µM); in the test with Klebsiella pneumoniae [32], 0.06 µg/mL; with Enterobacter cloacae [33] it was 1 µg/mL; in the test on Klebsiella pneumoniae [39] it was 4 µg/mL; in the test with Escherichia coli [41] it was 0.25 µg/mL. Also, the MBC in the test on Pseudomonas aeruginosa [37] came to 64 µg/mL (≈ 126 µM).

By MBC is commonly meant the smallest concentration meeting the test's criterion for killing. Usually MIC stands for the least concentration at which growth counts as inhibited.
